PMC9457610, “Synthesis of thia-Michael-Type Adducts between Naphthoquinones and N-Acetyl-L-Cysteine and Their Biological Activity” (Molecules, 2022)

How the values were obtained:
[1] = system: HDFa; assay: MTT cell viability assay, normal cell line HDFa; assay type: cell-based; conditions: Homo sapiens, normal dermal fibroblast, 48 h treatment, ± SD
Method: (§1) Molecules 8–12 were tested in vitro using the MTT assay against four cancer cell lines: HeLa, SH-SY5Y, SaOS2, and U2OS. […] Cytotoxic activities were expressed as IC50 values, i.e., the concentration of the substance that reduced cell viability by 50% (Table 2).
(§2) HeLa, SH-SY5Y, SaOS2, U2OS, and HDFa cell lines were purchased from American Type Culture Collection (ATCC; Manassas, VA, USA). HeLa, SaOS2, and U2OS cells were cultured in RPMI 1640 medium (Labtek Eurobio, Milan, Italy), while SH-SY5Y and HDFa cells were cultured in high-glucose DMEM (Labtek Eurobio, Milan, Italy), and both were supplemented with 10% FCS (Euroclone, Milan, Italy) and 2mM L-glutamine (Sigma-Aldrich, Milan, Italy), at 37 °C in a 5% CO2 atmosphere. The compounds were dissolved in DMSO in a 30–50 mM stock solution. In cell treatments, the final DMSO concentration never exceeded 0.1%.
(§3) Cells were seeded at 1.5 × 10^4 cells/well in a 96-well culture plastic plate (Orange Scientific, Braine-l’Alleud, Belgium), and after 24 h of growth, they were exposed to increasing concentrations of compounds (from 0.01 to 200 μM) solubilized in RPMI 1640 medium. After 48 h of treatment, the culture medium was replaced with 0.1 mL of 3-(4,5-dimethylthiazolyl-2)-2,5-diphenyltetrazolium bromide (MTT; Sigma-Aldrich, Milan, Italy) dissolved in PBS at the concentration of 0.2 mg/mL, and samples were incubated for 2 h at 37 °C. The formazan salt crystals formed were dissolved with 0.2 mL of isopropyl alcohol for 20 min. The absorbance at 570 nm was measured using a multi-well plate reader (Tecan, Männedorf, Switzerland), and data were analyzed using Prism GraphPad software and expressed as IC50.

[2] = system: HeLa, SH-SY5Y, SaOS2, and U2OS; assay: MTT cell viability assay, all malignant cell lines tested (summary); assay type: cell-based, human; conditions: summary over HeLa, 48 h; for IC50: Homo sapiens, read-out: IC50 values against all the malignant cell lines tested
Method: as §1, §2, §3

[3] = system: SH-SY5Y cells; assay: Intracellular ROS level (DCFDA), SH-SY5Y; assay type: cell-based, human; conditions: for increase in ROS formation with respect to control: 1 h, 5 μM 8 (GA 462) or 20 μM 11 (SM71); for ROS production: 48 h, 5 μM 8 or 20 μM 11
Method: (§4) To further explore and establish a direct relationship between 8 or 11 and ROS, DCFH-DA staining was applied to HeLa, U2OS, and SH-SY5Y cells treated for 1 h and 48 h. […] Indeed, in HeLa cells, 8 induced an increase in ROS formation of 1.14 ± 0.042, while in U2OS and SH-SY5Y cells, the increases were 1.30 ± 0.13-fold and 1.51 ± 0.16-fold with respect to control, with p < 0.0001, p < 0.0005, and p < 0.0024, respectively. In the same way, 11 induced increases in ROS formation in HeLa cells of 1.27 ± 0.16, while in U2OS and SH-SY5Y cells, the increases were 1.62 ± 0.11-fold and 1.61 ± 0.14-fold with respect to control, with p < 0.0049, p < 0.0001, and p < 0.0056, respectively. Moreover, it is important to note that both compounds 8 and 11 induced a greater formation of ROS in U2OS and SH-SY5Y cells than in HeLa cells, as shown in Figure 5A.
(§5) Oxidative stress was measured in intact cells using an ROS indicator, 2′,7′-dichlorodihydrofluorescein diacetate (DCFDA; Thermo Fisher Scientific, Waltham, MA, USA). HeLa, U2OS, and SH-SY5Y cells were seeded in 96-well plates at 1.5 × 10^4 cells/well (Optiplate, Perkin Elmer, Milan, Italy), and after 24 h to allow adhesion, HeLa and SH-SY5Y cells were incubated with 5 μM GA 462 or 20 μM SM71, while U2OS were treated with 5 μM 8 or 30 μM 11, dissolved in complete medium for 1 or 48 h at 37 °C in 5% CO2 atmosphere. After this time, cells were washed with PBS and treated with 10 μM DCFDA in culture medium for 30 min. Finally, cells were washed again with PBS and the fluorescence value in each well was measured (λexc = 488 nm; λem = 530 nm) with a plate reader (Tecan, Männedorf, Switzerland). Fluorescence emission was normalized to protein content measured using the Bradford method.

[4] = system: HeLa cells; assay: Cell-cycle analysis (PI stain, flow cytometry), HeLa; assay type: cell-based, human; conditions: 5 μM
Method: (§6) For this reason, we decided to analyze the effects on proliferation by treating the cells only with 8. Next, we explored the effect of 5 μM 8 on cell-cycle distribution in HeLa, U2OS, and SH-SY5Y cancer cells using PI stain followed by flow cytometry. Cells were exposed to the compound for 24 or 48 h prior to processing and analysis.
(§7) The effects on the HeLa and U2OS cell cycles were studied after 24 or 48 h of treatment with 5 μM 8. Cells were detached with 0.11% trypsin, washed in PBS and centrifuged. The pellet was resuspended in 0.01% Nonidet P-40, 10 μg/mL RNase, 0.1% sodium citrate, and 50 μg/mL PI, for 30 min at room temperature in the dark. Flow cytometric analyses were performed as previously described.

[5] = system: HeLa cells; assay: Intracellular ROS level (DCFDA), HeLa; assay type: cell-based, human
Method: as §4, §5

[6] = system: U2OS cells; assay: Intracellular ROS level (DCFDA), U2OS; assay type: cell-based, human; conditions: 5 μM 8 or 30 μM 11; for increase in ROS formation with respect to control: 1 h; for ROS production: 48 h
Method: as §4, §5

[7] = system: SH-SY5Y; assay: MTT cell viability assay, SH-SY5Y; assay type: cell-based; conditions: Homo sapiens, 48 h treatment, 0.01 to 200 μM, ± SD, n.a. = not active
Method: as §1, §2, §3

[8] = system: SH-SY5Y cells; assay: Cell-cycle analysis (PI stain, flow cytometry), SH-SY5Y; assay type: cell-based, human; conditions: 5 μM
Method: as §6, §7

[9] = system: HeLa; assay: MTT cell viability assay, HeLa; assay type: cell-based; conditions: Homo sapiens, 48 h treatment, 0.01 to 200 μM, ± SD, n.a. = not active
Method: as §1, §2, §3

[10] = system: U2OS; assay: MTT cell viability assay, U2OS; assay type: cell-based; conditions: Homo sapiens, 48 h treatment, 0.01 to 200 μM, ± SD, n.a. = not active
Method: as §1, §2, §3

[11] = system: SaOS2; assay: MTT cell viability assay, SaOS2; assay type: cell-based; conditions: Homo sapiens, SAOS-2, 48 h treatment, 0.01 to 200 μM, ± SD, n.a. = not active
Method: as §1, §2, §3

[12] = system: U2OS cells; assay: Cell-cycle analysis (PI stain, flow cytometry), U2OS; assay type: cell-based, human; conditions: 5 μM
Method: as §6, §7

[13] = 1 h, 5 μM 8 (GA 462) or 20 μM 11 (SM71)

IC50 [2] [nM]	IC50 [7] [nM]	IC50 [9] [nM]	IC50 [10] [nM]	melting point	IC50 values against all the malignant cell lines tested [2]	Compound	IC50 [1] [µM]	increase in ROS formation with respect to control [3] [fold]	ROS production [3]	increase in the number of G0/G1-phase cells with respect to control ([4]; 24 h) [%]	increase in the number of cells in the S phase with respect to control ([4]; 48 h) [%]	increase in ROS formation with respect to control [5, 13] [fold]	increase in ROS formation with respect to control ([5]; 48 h, 5 μM 8) [fold]	increase in ROS formation with respect to control [6] [fold]	ROS production [6]	increase in S-phase cells with respect to control ([8]; 24 h) [%]	accumulation of cells in the S phase with respect to control ([8]; 48 h) [%]	IC50 [11] [nM]	increase in S-phase cells with respect to control ([12]; 24 h) [%]	accumulation of cells in the S phase with respect to control ([12]; 48 h) [%]
–	11400 ± 1	13200 ± 50	30400 ± 5	209.8 to 211.7 °C	–	CC(=O)N[C@@H](CSC1=CC(=O)c2c(O)cccc2C1=O)C(=O)O [Compound 11, N-acetyl-S-(5-hydroxy-1,4-dioxo-1,4-dihydronaphthalen-2-yl)-L-cysteine]	6.88 ± 0.05	1.61 ± 0.14	no ROS production	–	–	1.27 ± 0.16	–	1.62 ± 0.11	no ROS production	–	–	25900 ± 50	–	–
500 to 1810	630 ± 40	1040 ± 8	1650 ± 30	238.2 to 239.9 °C	–	CC(=O)N[C@@H](CSC1=CC(=O)c2c(O)ccc(O)c2C1=O)C(=O)O [Compound 12, N-acetyl-S-(5,8-dihydroxy-1,4-dioxo-1,4-dihydronaphtalen-2-yl)-L-cysteine]	0.83 ± 0.007	–	–	–	–	–	–	–	–	–	–	1560 ± 30	–	–

Further lines, the compound ahead of its results:

Compound	IC50 [2] [nM]	IC50 [7] [nM]	IC50 [9] [nM]	IC50 [10] [nM]	melting point	IC50 values against all the malignant cell lines tested [2]	IC50 [1] [µM]	increase in ROS formation with respect to control [3] [fold]	ROS production [3]	increase in the number of G0/G1-phase cells with respect to control ([4]; 24 h) [%]	increase in the number of cells in the S phase with respect to control ([4]; 48 h) [%]	increase in ROS formation with respect to control [5, 13] [fold]	increase in ROS formation with respect to control ([5]; 48 h, 5 μM 8) [fold]	increase in ROS formation with respect to control [6] [fold]	ROS production [6]	increase in S-phase cells with respect to control ([8]; 24 h) [%]	accumulation of cells in the S phase with respect to control ([8]; 48 h) [%]	IC50 [11] [nM]	increase in S-phase cells with respect to control ([12]; 24 h) [%]	accumulation of cells in the S phase with respect to control ([12]; 48 h) [%]
CC(=O)N[C@@H](CSC1=CC(=O)c2ccccc2C1=O)C(=O)O [Compound 8, N-acetyl-S-(1,4-dioxo-1,4-dihydronaphthalen-2-yl)-L-cysteine]	500 to 1810	870 ± 3	540 ± 50	1810 ± 7	–	–	7.43 ± 0.02	1.51 ± 0.16	no ROS production	1.3	1.2	1.14 ± 0.042	2.28 ± 0.47	1.30 ± 0.13	no ROS production	1.1	1.3	1670 ± 10	1.3	1.1
CC(=O)N[C@@H](CSC1=C(C)C(=O)c2ccccc2C1=O)C(=O)O [Compound 9, N-acetyl-S-(3-methyl-1,4-dioxo-1,4-dihydronaphthalen-2-yl)-L-cysteine]	500 to 1810	960 ± 60	500 ± 80	510 ± 60	206.9 to 208.3 °C	–	3.87 ± 0.01	–	–	–	–	–	–	–	–	–	–	590 ± 40	–	–
CC(=O)N[C@@H](CSC1=C(C)C(=O)c2cccc(O)c2C1=O)C(=O)O [Compound 10, N-acetyl-S-(8-hydroxy-3-methyl-1,4-dioxo-1,4-dihydronaphthalen-2-yl)-L-cysteine]	–	–	–	–	> 193 °C (dec.)	inactive	–	–	–	–	–	–	–	–	–	–	–	–	–	–
